Measured values published in PMC6212767 (2018).

Experiments:
[1] = tested on: poly[d(G-C)2] (DNA, polymer) GC; test: circular dichroism; details: 25 mM NaCl; 10 mM phosphate, pH 7.0; ~100 μM bp DNA; intercalation
[2] = tested on: poly[d(G-C)2] (DNA, polymer) GC; test: UV melting, 260 nm; details: per base
[3] = tested on: poly[d(A-T)2] (DNA, polymer) AT; test: circular dichroism; details: 25 mM NaCl; 10 mM phosphate, pH 7.0; ~100 μM bp DNA; minor groove
[4] = tested on: poly[d(A-T)2] (DNA, polymer) AT; test: ethidium bromide displacement fluorescence; details: apparent; per base pair; ethidium displaced; slightly lower than with poly[d(G-C)2]
[5] = tested on: poly[d(G-C)2] (DNA, polymer) GC; test: ethidium bromide displacement fluorescence; details: apparent, per base pair, ethidium displaced, buffer as in cited literature

CC[n+]1c(-c2ccccc2)c2cc(N)ccc2c2ccc(N)cc21
binding [1]: yes

CN(C)c1ccc(C(=C2C=CC(=[N+](C)C)C=C2)c2ccc([N+](C)(C)C)cc2)cc1
ΔTm ([2]; compound ratio for methyl green not stated in material): +5.2 °C

Cn1cc(NC(=O)c2cc(NC(=O)CN=C(N)N)cn2C)cc1C(=O)NCCC(=N)N
binding [3]: yes

[Cl-].[Cl-].[Cl-].[Cl-].[Cu+2].[Cu+2].c1ccc(CN(Cc2ccc3ccc(CN(Cc4ccccn4)Cc4ccccn4)cc3c2)Cc2ccccn2)nc1
binding [4]: yes | ΔTm ([2]; r = 0.1, biphasic, first derivative transition d1, second transition d2 -1.5 ± 1.2 °C): -18.5 ± 1.2 °C | Kapp [5]: ~ 1 × 10^7 M(bp)^−1
